We go through eleven compounds from article doi:10.1101/2025.01.15.632643v1 (biorxiv, 2025).

Assay [1] addresses T1, His-ZZ-DYRK1A kinase domain (DYRK1A protein) (Homo sapiens, UniProt Q13627). In words: luminescent kinase assay after transient heating. The format is biochemical.
Assay [2] addresses T1, His-ZZ-DYRK1A kinase domain (DYRK1A protein). In words: biochemical. To be noted: read-out: kon.
The target is the same in assay [3]. The assay is described as follows: biochemical. To be noted: read-out: koff.
Assay [4] addresses T2, His-ZZ-DYRK1B kinase domain (DYRK1B protein) (Homo sapiens, UniProt Q9Y463). To be noted: read-out: DYRK1B –; inhibitor.
In assay [5] the target is T2, His-ZZ-DYRK1B kinase domain (DYRK1B protein). The following applies: read-out: DYRK1B Transient heating; inhibitor.
The target is the same in assay [6]. The assay is described as follows: biochemical. The following applies: read-out: kon.
Assay [7] has the same target. The assay is described as follows: biochemical. To be noted: read-out: koff.
Assay [8] shares this target. In words: luminescent kinase assay after transient heating. To be noted: […] °C […] sec heating with compound, then ATP […], DYRKtide […], pH […]. The format is biochemical.
In assay [9] the target is T1, His-ZZ-DYRK1A kinase domain (DYRK1A protein). The following applies: read-out: DYRK1A –; without transient heating; inhibitor.
The target is the same in assay [10]. The following applies: read-out: DYRK1A Transient heating; with transient heating (20 sec); inhibitor.
Assay [11] concerns the target T2, His-ZZ-DYRK1B kinase domain (DYRK1B protein). To be noted: read-out: DYRK1B Transient heating; with transient heating (20 sec); inhibitor.
Assay [12] shares this target. The following applies: read-out: DYRK1B –; without transient heating; inhibitor.

Like-named read-outs stand apart in the source and are kept apart here.

For orientation: kon means a measure of how fast the partners come together. Usually koff stands for the rate constant with which the complex falls apart. On to `COc1ccc(/C=C2\SC(=S)NC2=O)cc1C#C[Si](C)(c1ccccc1)c1ccccc1` [compound 2, dp-FINDY], for which the IC50 in assay [1] was 2.6 µM; in assay [4], above 32 µM; in assay [5], 2.5 µM. Also, the kon in [2] is 0.28 M⁻¹ s⁻¹; in [6], 200 M⁻¹ s⁻¹. In addition, the koff is 2.2e-07 s⁻¹ in [3] and 0.00012 s⁻¹ in assay [7].

Turning to `COc1ccc(/C=C2\NC(=S)NC2=O)cc1C#C[Si](C)(c1ccccc1)c1ccccc1` [compound 4, RD1408], the IC50 in [5] was determined as 14 µM.

As for `CCOc1cc(/C=C2\SC(=S)NC2=O)ccc1O` [compound 5, RD0392], the IC50 in [4] came out at 3.6 µM; in assay [5] it was 3.5 µM.

With `C#Cc1cc(/C=C2\SC(=S)NC2=O)ccc1OC` [compound 11, RD0448], the IC50 in assay [8] came out at 16 µM; in [1] it was 38 µM; in [4] it was 52 µM.

Turning to `C#Cc1cc(/C=C2\SC(=S)NC2=O)ccc1O` [compound 12, RD0562], the IC50 in assay [4] and in assay [5] was 23 µM in each case.

Turning to `COc1ccc(/C=C2\SC(=S)NC2=O)cc1` [compound 13, RD1486], the IC50 in [4] turned out to be 9.7 µM; in assay [5], 17 µM.

In the case of `COc1ccc(/C=C2\SC(=S)NC2=O)cc1/C=C/[Si](C)(C)C` [dFINDY], the IC50 was above 32 µM in assay [9] and 4.9 µM in [10].

`COc1ccc(/C=C2\SC(=S)NC2=O)cc1/C=C/C1CCCCC1` [dscy-dFINDY]: the IC50 was above 32 µM in [9] and 4.1 µM in [10].

Turning to `COc1ccc(/C=C2\SC(=S)NC2=O)cc1/C=C/C(C)(C)C` [dstb-dFINDY], the IC50 in [11] is 7.4 µM; in assay [9], above 32 µM; in [10] it was above 32 µM.

`COc1ccc(/C=C2\SC(=S)NC2=O)cc1C#C[Si](c1ccccc1)(c1ccccc1)c1ccccc1` [tp-FINDY]: the IC50 was above 32 µM in [12] and 5.8 µM in [11].

As to `COc1ccc(/C=C2\SC(=S)NC2=O)cc1C#C[Si]([Si](C)(C)C)([Si](C)(C)C)[Si](C)(C)C` [ts-FINDY], the IC50 in assay [12] is above 32 µM; in assay [11], 4.6 µM.
